Laboratory results: patent EP4129284B1, “SERTACONAZOL FOR PROVIDING A SPORISTATIC AND/OR SPORICIDAL EFFECT” (Dr. Pfleger Arzneimittel GmbH, priority 2021, dated 2023)

Tests used:
[1] = tested on: T. rubrum; assay: Full skin model infected with spores, treatment, histology (PAS-staining); assay type: cell-based, Trichophyton rubrum; details: for spread of T. rubrum: up to 72 h after application, ciclopiroxolamin 400 µg/mL, terbinafin 0.050 µg/mL, histology vs infected untreated control; for outgrowth of the spores of T. rubrum: sertaconazol 0.025 µg/mL, Fig. 5
Excerpt: (§1) For an application in vivo, there is the additional requirement for the antimycotic substances to evoke a targeted antimycotic activity in the presence of human cells. Thus, 3D-cell-cultures such as full skin models are used to simulate the in vivo conditions. Such full skin models are for example described in Reddersen K, Wiegand C, Elsner P, Hipler UC. Three-dimensional human skin model infected with Staphylococcus aureus as a tool for evaluation of bioactivity and biocompatibility of antiseptics. Int J Antimicrob Agents. 2019; 54(3):283-291; Wiegand C, Fink S, Beier O, Horn K, Pfuch A, Schimanski A, Grünler B, Hipler UC, Elsner P. Dose- and Time-Dependent Cellular Effects of Cold Atmospheric Pressure Plasma Evaluated in 3D Skin Models. Skin Pharmacol Physiol. 2016;29(5):257-265. Particularly, such full skin models are made of a collagen matrix, which is colonized with primary human fibroblasts, and a fully differentiated epidermis made of primary human keratinocytes. For the experiments, the model is infected in vitro with spores, such that a determination of the sporistatic or sporicidal influence of the substances to be examined at in vivo relevant conditions is allowed. Compared to a 2D-model, the 3D full skin model has the advantage that the cells are in their natural three-dimensional surrounding and show a corresponding behaviour. Such, the antimycotic and sporistatic or sporicidal effects can be examined in situ and in the presence of human cells.
The spore suspensions and the solutions of sertaconazol, ciclopiroxolamin and terbinafin were prepared as in Example 1, wherein the respective test concentrations were obtained by diluting these solutions in ultrapure water (WFI; Fresenius Kabi) instead of SGB (Merck). Full skin models were produced as previously described [Reddersen K, Wiegand C, Elsner P, Hipler UC. Three-dimensional human skin model infected with Staphylococcus aureus as a tool for evaluation of bioactivity and biocompatibility of antiseptics. Int J Antimicrob Agents. 2019; 54(3):283-291; Wiegand C, Fink S, Beier O, Horn K, Pfuch A, Schimanski A, Grünler B, Hipler UC, Elsner P. Dose- and Time-Dependent Cellular Effects of Cold Atmospheric Pressure Plasma Evaluated in 3D Skin Models. Skin Pharmacol Physiol. 2016;29(5):257-265].Particularly, normal human dermal fibroblasts (NHDF; Lot 1060702.1, Promocell) and normal human epidermal keratinocytes (NHEK; Lot 9100102, Promocell) were used. Fibroblasts were cultivated in Dulbecco's modified eagle medium (DMEM; Lot MC09049P, Amimed), with 2% foetal calf serum (Lot P160509; PAN), 5 ng/mL hFGF (Lot 0329586; novoprotein) and 5 µg/ml Insulin (Lot H07443P, AMIMED) at 37°C and a 5% CO2 atmosphere. […]

[2] = tested on: E. floccosum; assay: Full skin model infected with spores, treatment, histology; assay type: cell-based, Epidermophyton floccosum; details: 48 h and 72 h, sertaconazol 0.010, ciclopiroxolamin 400, terbinafin 0.200 µg/mL
Excerpt: as §1
The spore suspensions and the solutions of sertaconazol, ciclopiroxolamin and terbinafin were prepared as in Example 1, wherein the respective test concentrations were obtained by diluting these solutions in ultrapure water (WFI; Fresenius Kabi) instead of SGB (Merck). Full skin models were produced as previously described [Reddersen K, Wiegand C, Elsner P, Hipler UC. […] 2019; 54(3):283-291; Wiegand C, Fink S, Beier O, Horn K, Pfuch A, Schimanski A, Grünler B, Hipler UC, Elsner P. Dose- and Time-Dependent Cellular Effects of Cold Atmospheric Pressure Plasma Evaluated in 3D Skin Models. […]

Structure (SMILES)	spread of T. rubrum [1]	outgrowth of E. floccosum [2]	outgrowth of the spores of T. rubrum ([1]; 48 h treatment)	outgrowth of the spores of T. rubrum ([1]; 72 h treatment)
Cc1cc(C2CCCCC2)n(O)c(=O)c1 [Ciclopiroxolamin, ciclopiroxolamin]	reduce the spread of T. rubrum but could not inhibit it	only reduced	–	–
Clc1ccc(C(Cn2ccnc2)OCc2csc3c(Cl)cccc23)c(Cl)c1 (stereo not shown) [Sertaconazol, sertaconazol]	–	inhibited	inhibit the outgrowth	reduce the outgrowth
CN(C/C=C/C#CC(C)(C)C)Cc1cccc2ccccc12 [Terbinafin, terbinafin]	did not have any effect	only reduced	–	–
